According to patent publication US20080146559A1, “4,5,6,7-Tetrahydro-Thieno [2,3-C] Pyridine Derivatives” (priority 2006, published 2008):
pKi: −log10 of the molar value.

Each compound was assayed against T1, human H3R (Homo sapiens, UniProt Q9Y5N1) (assay: Binding assay with 3H-(R)α-methylhistamine (competition binding)). Conditions: membrane of the human H3R-CHO cell line, 3H(R)α-methylhistamine 1 nM, Ki calculated from IC50 by Cheng-Prusoff.
T1 construct: expressed in transfected cells; host or cells: CHO cells (membranes)
Description: Binding assay with ^3H—(R)α-methylhistamine
Saturation binding experiments were performed using HR3-CHO membranes prepared as described in Takahashi, K, Tokita, S., Kotani, H. (2003) J. Pharmacol. Exp. Therapeutics 307, 213-218.
An appropriate amount of membrane (60 to 80 μg protein/well) was incubated with increasing concentrations of ^3H(R)α-Methylhistamine di-hydrochloride (0.10 to 10 nM). Non specific binding was determined using a 200 fold excess of cold (R)α-Methylhistamine dihydrobromide (500 nM final concentration). The incubation was carried out at room temperature (in deep-well plates shaking for three hours). The final volume in each well was 250 μl. The incubation was followed by rapid filtration on GF/B filters (pre-soaked with 100 μl of 0.5% PEI in Tris 50 mM shaking at 200 rpm for two hours). The filtration was made using a cell-harvester and the filter plates were then washed five times with ice cold washing buffer containing 0.5 M NaCl. After harvesting, the plates were dried at 55° C. for 60 min, then we added scintillation fluid (Microscint 40, 40 microl in each well) and the amount of radioactivity on the filter was determined in Packard top-counter after shaking the plates for two hours at 200 rpm at room temperature.
Binding Buffer: 50 mM Tris-HCl pH 7.4 and 5 mM MgCl2×6H2O pH 7.4. Washing Buffer: 50 mM Tris-HCl pH 7.4 and 5 mM MgCl2×6H2O and 0.5 M NaCl pH 7.4. Indirect measurement of affinity of H3R inverse agonists: twelve increasing concentrations (ranging from 10 μM to 0.3 nM) of the selected compounds were always tested in competition binding experiments using membrane of the human H3R—CHO cell line. An appropriate amount of protein, e.g. approximately 500 cpm binding of RAMH at Kd, were incubated for 1 hour at room temperature in 250 μl final volume in 96-well plates in presence of ^3H(R)α-methylhistamine (1 nM final concentration=Kd). Non-specific binding was determined using a 200 fold excess of cold (R)α-methylhistamine dihydrobromide.
All compounds were tested at a single concentration in duplicate. […] The concentration at which 50% inhibition of the radioligand ^3H(R)α-methylhistamine is obtained (the IC50) is determined from the linear regression of a plot of the logarithm of the concentration versus percent inhibition measured for the different concentrations. Ki's were calculated from IC50 based on Cheng-Prusoff equation (Cheng, Y, Prusoff, W H (1973) Biochem Pharmacol 22, 3099-3108): Ki=IC50/[1+D/Kd] wherein D is the concentration of the radioligand and Kd is the binding constant for the radioligand binding to the receptor under the conditions used in the competition experiment.

T1 sequence (Q9Y5N1 whole entry): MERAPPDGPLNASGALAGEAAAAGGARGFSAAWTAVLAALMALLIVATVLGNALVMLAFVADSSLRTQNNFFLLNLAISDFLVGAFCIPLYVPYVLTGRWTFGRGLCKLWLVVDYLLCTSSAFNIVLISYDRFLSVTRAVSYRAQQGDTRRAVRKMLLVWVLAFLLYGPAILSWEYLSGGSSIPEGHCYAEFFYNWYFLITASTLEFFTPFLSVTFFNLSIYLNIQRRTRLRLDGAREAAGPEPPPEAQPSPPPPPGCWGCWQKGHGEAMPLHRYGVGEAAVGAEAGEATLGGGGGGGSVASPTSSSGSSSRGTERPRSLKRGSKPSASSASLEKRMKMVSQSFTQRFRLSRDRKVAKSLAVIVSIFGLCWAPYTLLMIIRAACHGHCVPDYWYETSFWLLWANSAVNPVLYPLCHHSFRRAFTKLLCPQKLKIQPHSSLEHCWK

| pKi | Compound |
| --- | --- |
| 7.50 | O=C(c1cccc(F)c1)N1CCc2cc(OCCCN3CCCCC3)sc2C1 [Example 10, (3-fluoro-phenyl)-[2-(3-piperidin-1-yl-propoxy)-4,7-dihydro-5H-thieno[2,3-c]pyridin-6-yl]-methanone] |
| 7.39 | CC(C)(C)CC(=O)N1CCc2cc(OCCCN3CCCC3)sc2C1 [Example 20, 3,3-dimethyl-1-[2-(3-pyrrolidin-1-yl-propoxy)-4,7-dihydro-5H-thieno[2,3-c]pyridin-6-yl]-butan-1-one] |
| 7.47 | O=S(=O)(c1ccccc1)N1CCc2cc(OCCCN3CCCC3)sc2C1 [Example 32, 6-benzenesulfonyl-2-(3-pyrrolidin-1-yl-propoxy)-4,5,6,7-tetrahydro-thieno[2,3-c]pyridine] |
| 7.38 | CC(C)CN1CCC(Oc2cc3c(s2)CN(C(=O)CC(C)(C)C)CC3)CC1 [Example 44, 1-[2-(1-isobutyl-piperidin-4-yloxy)-4,7-dihydro-5H-thieno[2,3-c]pyridin-6-yl]-3,3-dimethyl-butan-1-one] |
| 7.88 | CC(C)CC(=O)N1CCc2cc(OC3CCN(C(C)C)CC3)sc2C1 [Example 64, 1-[2-(1-isopropyl-piperidin-4-yloxy)-4,7-dihydro-5H-thieno[2,3-c]pyridin-6-yl]-3-methyl-butan-1-one] |
| 7.19 | Cc1ccc(S(=O)(=O)N2CCc3cc(OC4CCN(C(C)C)C4)sc3C2)cc1 (stereo not drawn) [Example 94, 2-(1-isopropyl-pyrrolidin-3-yloxy)-6-(toluene-4-sulfonyl)-4,5,6,7-tetrahydro-thieno[2,3-c]pyridine] |
